The results in this text go back to ChEMBL document CHEMBL1156588, “Structure-activity relationships of chiral selective norepinephrine reuptake inhibitors (sNRI) with increased oxidative stability” (Bioorg Med Chem Lett, 2008).

Data set [1] can be described thus: in vitro. Particulars: human, liver microsomes. Background: Liver microsomes are vesicles of endoplasmic reticulum, rich in cytochrome P450 enzymes.
A short description of data set [2]: Terminal half life in human. Format: ADME, organism-based. The following applies: in vivo.

By CLint scaled is commonly meant the capacity of the preparation to metabolise the compound, expressed as a volume cleared per time. A higher CLint scaled goes with faster metabolism. What is called half-life is how long it takes for the measured level to halve.

Bounds are passed on as bounds.

For `CNC[C@@H]1OCc2ccccc2[C@@H]1Oc1cccc(F)c1C`, in data set [1], the CLint scaled at 1 h, 1 µM came out at 21 mL/min/kg.

Compound `CNC[C@@H]1OCc2ccccc2[C@@H]1Oc1ccccc1Cl` showed a CLint scaled at 1 h, 1 µM in data set [1] of 8 mL/min/kg.

In data set [1], `CNC[C@@H]1COc2ccccc2[C@@H]1Oc1ccccc1Cl` displayed a CLint scaled at 1 h, 1 µM of 9 mL/min/kg.

The compound `CNC[C@@H]1OCc2ccccc2[C@@H]1Oc1c(F)cccc1C(F)(F)F` came in with an intrinsic metabolic clearance (CLint scaled) at 1 h, 1 µM in data set [1] of at most 3 mL/min/kg.

`CNC[C@@H]1OCc2ccccc2[C@@H]1Oc1c(C)cccc1F` returned a CLint scaled at 1 h, 1 µM in data set [1] of at most 3 mL/min/kg.

For the compound `CNC[C@@H]1OCc2ccccc2[C@@H]1Oc1ccc(O)cc1C`, the CLint scaled at 1 h, 1 µM in data set [1] was found to be 4 mL/min/kg.

Consider `CCc1ccccc1O[C@H]1c2ccccc2OC[C@H]1CNC`, for which, in data set [1], the CLint scaled at 1 h, 1 µM is at most 3 mL/min/kg.

For `CNC[C@@H]1OCc2ccccc2[C@@H]1Oc1ccccc1C(F)(F)F`, the CLint scaled at 1 h, 1 µM in data set [1] came out at 10 mL/min/kg.

In the case of `CNCC[C@@H](Oc1ccccc1C)c1ccccc1` [ATOMOXETINE], the CLint scaled at 1 h, 1 µM in data set [1] stood at 50 mL/min/kg. Besides, in data set [2], the half-life was 3 h.
